# What was measured:
# Format in all cases: in vivo
# Polygonum convolvulus = assay: Pre-emergence herbicidal action, POLCO; settings: for herbicidal activity POLCO: dosage 320 g/ha, scored visually after 3 weeks vs untreated controls (100% = plants have died)
# Procedure, shortened: (§1)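 Visual scoring after 3 weeks in the greenhouse, relative to untreated pots, gave percent activity, where 100% means dead plants and 0% equals controls. Treatment was a pre-emergence soil-surface spray of WP or EC formulations in water (600 to 800 l/ha, 0.2% wetting agent) over seeds covered in sandy loam.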
# Abutilon theophrasti [1] = assay: Pre-emergence herbicidal action, ABUTH; set-up: key to Herbicidal action against ABUTH: % activity: 100 = plants have died, 0 = like control plants; settings: for herbicidal activity ABUTH: dosage 320 g/ha, scored visually after 3 weeks vs untreated controls (100% = plants have died)
# Procedure, shortened: as §1
# Matricaria inodora = assay: Post-emergence herbicidal action, MATIN; set-up: key: % herbicidal action vs untreated; 100 = plants died, 0 = like control
# Procedure, shortened: (§2)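 Greenhouse post-emergence test: weeds sown in sandy loam were sprayed once at one leaf, 2 to 3 weeks from sowing, with aqueous WP or EC preparations carrying 0.2% wetting agent. Effect is scored visually after about 3 weeks.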
# Setaria viridis = assay: Post-emergence herbicidal action, SETVI; set-up: key: % herbicidal action vs untreated; 100 = plants died, 0 = like control
# Procedure, shortened: as §2
# Stellaria media = assay: Post-emergence herbicidal action, STEME; set-up: key: % herbicidal action vs untreated; 100 = plants died, 0 = like control
# Procedure, shortened: as §2
# Abutilon theophrasti [2] = assay: Post-emergence herbicidal action, ABUTH; set-up: key: % herbicidal action vs untreated; 100 = plants died, 0 = like control
# Procedure, shortened: as §2
# Pharbitis purpurea = assay: Post-emergence herbicidal action, PHBPU
# Procedure, shortened: as §2
# [3] = comparative experiment, 20 g of a.i./ha
Compound,herbicidal activity POLCO (Polygonum convolvulus) [%],herbicidal activity ABUTH (Abutilon theophrasti [1]) [%],herbicidal action MATIN (Matricaria inodora; Dosage 80 g/ha),herbicidal action SETVI (Setaria viridis; Dosage 80 g/ha),herbicidal action STEME (Stellaria media; Dosage 80 g/ha),herbicidal action ABUTH (Abutilon theophrasti [2]; Dosage 80 g/ha),herbicidal action PHBPU (Pharbitis purpurea; Dosage 80 g/ha),"herbicidal action MATIN (Matricaria inodora; post-emergence, dosage 80 g/ha) [%]","herbicidal action SETVI (Setaria viridis; post-emergence, dosage 80 g/ha) [%]","herbicidal action STEME (Stellaria media; post-emergence, dosage 80 g/ha) [%]","herbicidal action ABUTH (Abutilon theophrasti [2]; post-emergence, dosage 80 g/ha) [%]","herbicidal action PHBPU (Pharbitis purpurea; post-emergence, dosage 80 g/ha) [%]",Herbicidal action against POLCO (Polygonum convolvulus; [3]),Herbicidal action against ABUTH (Abutilon theophrasti [1]; [3])
CCCn1nnnc1NC(=O)c1ccc(C(F)F)c(CSCC)c1Cl [Example 3-323],100,100,90,100,100,100,90,,,,,,,
CCn1nnnc1NC(=O)c1ccc(C(F)F)c(C[S+]([O-])CC)c1Cl (centres unmarked) [Example 2-324],100,100,,,,,,100,90,100,100,100,,
CSc1c(C(=O)Nc2nnnn2C)ccc(C(F)(F)F)c1C[S+](C)[O-] (centres unmarked) [Example 1-162],100,100,,,,,,100,100,100,100,100,80,100
CCn1nnnc1NC(=O)c1ccc(C(F)(F)F)c(CSCCOC)c1Cl [Example 2-305],100,100,,,,,,100,100,100,100,100,,
CCCn1nnnc1NC(=O)c1ccc(C(F)(F)F)c(CS(C)(=O)=O)c1Cl [Example 3-298],80,100,100,80,100,80,100,,,,,,,
CCSCc1c(C(F)F)ccc(C(=O)Nc2nnnn2CC)c1Cl [Example 2-323],100,100,,,,,,90,100,100,100,90,,

# Reference: patent US12492173B2, “Herbicidal substituted N-tetrazolyl aryl carboxamides” (Bayer Aktiengesellschaft, priority 2019, dated 2025)
